# Patent US8410045B2, “Camptothecin-peptide conjugates and pharmaceutical compositions containing the same” (Drais Pharmaceuticals, Inc., priority 2006, dated 2013)
# Where “and” joins values, the source holds several entries; their conditions need not be identical. Identical values can stand only once. Like-named read-outs stand apart in the source and are kept apart here. Marks after values point to notes of the source that are not given here.
# Key:
# [1] = system: LS 174T human colorectal carcinoma tumor; experiment: Antitumor efficacy in human LS 174T xenograft colon tumor model implanted in nude rats; format: in vivo
# Method: The LS 174T study was performed using female nude rats (8 weeks old) purchased from Harlan breeding center (Gannat, France). LS 174T tumors were established by a subcutaneously implantation of cell (ATCC Number: CCl-188) suspensions in the right flank of the animals. The first injection of drugs was performed when the tumors reached a size of about 1000 mm^3. The tumor volume was calculated using the following formula: [length×width^2]/2.
# [2] = system: HT-29 colorectal carcinoma; experiment: Antitumor efficacy in HT-29 colorectal carcinoma model in nude mice; format: in vivo; details: Table 7
# [3] = system: MDA-MB-231 mammary carcinoma; experiment: Antitumor efficacy in MDA-MB-231 mammary carcinoma model in nude mice; format: in vivo; details: Table 7, i.v. Q2D3 × 3 W
# [4] = Toxicity study in the beagle dog following intravenous infusion; details: for Reduction in WBC at D5 (%) / Toxic signs Day 1 / Toxic signs Following Days: i.v. infusion
# Method: Adult female and male beagle dogs were individually housed with free access to tap water. A pellet diet was distributed daily.
# Dogs (1 dog for each drug and dose) were infused intravenously through the cephalic or saphenous vein. These intravenous infusions were made using a single-use catheter (Intraflon®) and a plastic syringe connected to a syringe pump. During the injection, the animals were restrained in a hammock.
# Conjugates were dissolved in water for injection (10% of final volume) and diluted with 0.9% NaCl to their final concentration. The volume administered to each animal was adjusted according to body weight.
# Clinical signs, hematological and intestinal toxicities were monitored during a period of 15 days after infusion. Each animal was checked at least twice a day for mortality or signs of morbidity.
# The body weight of each animal was recorded on the day −1, 4, 10 and 13.
# Peripheral blood samples were taken into EDTA tubes for the determination of following parameters on days −1, 5, 11 and 14: erythrocytes, hemoglobin, mean cell volume, packed cell volume, mean cell hemoglobin concentration, mean cell hemoglobin, thrombocytes, leucocytes, differential white cell count with cell morphology.
# [5] = system: HCT 116 human epithelial colon carcinoma cells; experiment: cells; format: cell-based
# Method: Cytotoxic evaluation was performed by seeded cells for 24 h prior to the addition of the therapeutic compound. Cells were incubated for 48 h (37° C.) with different dilutions of the therapeutic compound. Cell viability was then assessed using the WST-1 assay (Roche). The results are expressed as mean cytotoxic concentrations (IC50 value or molar concentration that inhibits 50% of cell viability) that were estimated from sigmoid regression, using Graph Pad Prism 3.02 software.
# HCT 116 (ATCC #: CCL-247): human epithelial colon carcinoma cells. Cells were cultured in Mc Coy's 5a medium+1.5 mM L-glutamine and 10% fetal bovine serum. Cells were plated at a density of 8000 cells/well in 96-well plates.
# [6] = system: NCI-H460 human epithelial lung carcinoma cells; experiment: In vitro cytotoxicity (WST-1 cell viability); format: cell-based; details: 24 h
# [7] = system: HCT 116 human colorectal carcinoma tumor
# HT-29 tumors = experiment: Combination of DPV1047-BCH-SN38 with 5-FU or bevacizumab in the HT-29 tumor model; details: i.v.
# Method: Mice were implanted with HT-29 tumors and treated by intraperitoneal administration (bevacizumab) or bolus intravenous injection (5-FU or DPV1047-BCH-SN38) at 10 μL/g. […] The T/C ratio was calculated following treatment with either bevacizumab, 5-FU or DPV1047-BCH-SN38. These T/C ratios were used to evaluate the expected T/C for combined treatment with bevacizumab and DPV1047-BCH-SN38, or 5-FU and DPV1047-BCH-SN38 (T/C of DPV1047-BCH-SN38×T/C of bevacizumab or 5-FU). […] The combination index of the two molecules was calculated by dividing the expected T/C by the observed T/C.
# [8] = Table 4, 20 (cumulative 100) μmol/kg, i.v. bolus, Q3/4Dx5
# [9] = Table 7, i.v. Q4D × 5, 10 μmol/kg
# [10] = Table 7, i.v. Q4D × 5, 20 μmol/kg
# [11] = Table 3, 30 (cumulative 90) μmol/kg, i.v. bolus, Q4Dx3
# [12] = Table 7, i.v. Q2D3 × 3 W, 25 μmol/kg
compound,measurement,setting,value
"CCc1c2c(nc3ccc(OC(=O)[C@H]4CC[C@H](CNC(=O)C5CCC(CN6C(=O)CC(SC[C@H](N)C(=O)N[C@H](C(=O)N[C@@H](CCCCN)C(=O)N[C@@H](CCCNC(=N)N)C(=O)NCC(=O)N[C@@H](CC(C)C)C(=O)N[C@@H](CCCCN)C(=O)N[C@@H](CC(C)C)C(=O)N[C@@H](CCCNC(=N)N)C(=O)N[C@@H](Cc7c[nH]cn7)C(=O)N[C@H](C(=O)N[C@@H](CCCNC(=N)N)C(=O)N7CCC[C@H]7C(=O)N[C@@H](CCCNC(=N)N)C(=O)N[C@H](C(=O)N[C@H](C(=O)N[C@@H](CCCNC(=N)N)C(=O)N[C@@H](CCSC)C(=O)N[C@@H](CC(=O)O)C(=O)N[C@H](C(=O)O)C(C)C)[C@@H](C)O)C(C)C)C(C)C)C(C)C)C6=O)CC5)CC4)cc13)-c1cc3c(c(=O)n1C2)COC(=O)[C@]3(O)CC (single isomer, unassigned) [DPV1047-BCH-SN38]",Minimal T/C (%),[1]; [8],43%
same,TGI %,[1]; [8],57*** %
same,Optimal T/C %,[1]; [9],47.2%
same,TGI %,[1]; [9],52.8%
same,Optimal T/C %,[1]; [10],42.8%
same,TGI %,[1]; [10],57.2%
same,Optimal T/C %,"[2]; i.v. Q4D × 3, 12.5 μmol/kg",66.8%
same,TGI %,"[2]; i.v. Q4D × 3, 12.5 μmol/kg",33.2%
same,Optimal T/C %,"[2]; i.v. Q4D × 3, 25 μmol/kg",39.2%
same,TGI %,"[2]; i.v. Q4D × 3, 25 μmol/kg",60.8%
same,Optimal T/C %,[3]; 12.5 μmol/kg,34.1%
same,TGI %,[3]; 12.5 μmol/kg,65.9%
same,Optimal T/C %,[3]; 25 μmol/kg,30.1%
same,TGI %,[3]; 25 μmol/kg,69.9%
same,reduction in WBCs,"[4]; dog, 20 mg/kg",93%
same,clinical signs of toxicity,"[4]; dog, 30 mg/kg",clear toxicological signs including diarrhea and a severe hematoxicity
same,Reduction in WBC at D5 (%),"[4]; dog, 5 mg/kg",−60%
same,Toxic signs Day 1,"[4]; dog, 5 mg/kg",None
same,Toxic signs Following Days,"[4]; dog, 5 mg/kg",None
same,Reduction in WBC at D5 (%),"[4]; dog, 10 mg/kg",−50% and −57%
same,Toxic signs Day 1,"[4]; dog, 10 mg/kg",None
same,Toxic signs Following Days,"[4]; dog, 10 mg/kg",None
same,Reduction in WBC at D5 (%),"[4]; dog, 20 mg/kg",−93%
same,Toxic signs Day 1,"[4]; dog, 20 mg/kg",None
same,Toxic signs Following Days,"[4]; dog, 20 mg/kg",Decrease in food
same,Reduction in WBC at D5 (%),"[4]; dog, 30 mg/kg",−96%
same,Toxic signs Day 1,"[4]; dog, 30 mg/kg",None
same,Toxic signs Following Days,"[4]; dog, 30 mg/kg",Liquid faeces D4
same,MTD,"[4]; dog, in vivo, iv",~20 mg/kg
same,clinical signs,"[4]; dogs, 5 and 10 mg/kg",no clinical signs
same,IC50,[5]; 24 h,24 nM
same,IC50,[5]; 48 h,29 nM
same,IC50,[6],40 nM
same,"clinical signs of toxicity such as body weight loss, diarrhea or alopecia","[7]; HCT 116 tumor-bearing nude mice, conjugates administered at their MADs",No clinical signs of toxicity
same,Minimal T/C (%),[7]; [11],10%
same,TGI %,[7]; [11],80%
same,TGI (100-T/C %),"[7]; Table 5, Q1D5, 18 (cumulative 90) μmol/kg",93*** %
same,Minimal T/C (%),"[7]; Table 5, Q1D5, 18 (cumulative 90) μmol/kg, i.v. bolus",7%
same,Minimal T/C (%),"[7]; Table 5, Q2D3x3W, DPV1047-BCH-SN38 25 (225), irinotecan 48 (432) μmol/kg",3%
same,TGI (100-T/C %),"[7]; Table 5, Q2D3x3W, DPV1047-BCH-SN38 25, irinotecan 48 μmol/kg",97*** %
same,Optimal T/C %,[7]; [12],3.4%
same,TGI %,[7]; [12],96.6%
same,Minimal T/C (%),"[7]; mouse, in vivo",10%
same,TGI (100-T/C %),"[7]; mouse, in vivo",90*** %
same,Single treatment DPV1047-BCH-SN38 T/C %,"HT-29 tumors; 12.5 μmol/kg, 5-FU combination experiment",68%
same,Single treatment DPV1047-BCH-SN38 T/C %,"HT-29 tumors; 12.5 μmol/kg, bevacizumab combination experiment",77%
same,Single treatment DPV1047-BCH-SN38 T/C %,"HT-29 tumors; 25 μmol/kg, 5-FU combination experiment",50%
same,Single treatment DPV1047-BCH-SN38 T/C %,"HT-29 tumors; 25 μmol/kg, bevacizumab combination experiment",69%
